The supplement of paper PMC13207355
Counter-ions that a name gives are not always drawn.

How the values were obtained:
Conditions in all cases: exposure time: 72 h
E13 [1] = patient-derived glioblastoma stem cells of classical subtype; test: phenotypic distance (Euclidean, principal components) from DMSO controls (arbitrary units); higher = stronger morphological change
E31 [2] = patient-derived glioblastoma stem cells of proneural subtype; test: as above
E28 [3] = patient-derived glioblastoma stem cells of classical subtype; test: as above
FT3469 [4] = normal neural stem cell line; test: as above
E34 [5] = patient-derived glioblastoma stem cells of proneural subtype; test: as above
E57 [6] = patient-derived glioblastoma stem cells of mesenchymal subtype; test: as above
E21 [7] = patient-derived glioblastoma stem cells of mesenchymal subtype; test: as above
E13 [8] = test: surviving fraction (nuclei count normalised to DMSO); higher = more cells surviving (less toxic)
E31 [9] = test: as above
E28 [10] = test: as above
FT3469 [11] = test: as above
E34 [12] = test: as above
E57 [13] = test: as above
E21 [14] = test: as above
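For phenotypic distance (Euclidean, principal components) from DMSO controls in this document: cell Painting imaging in 384-well plates, CellProfiler features reduced to at least 20 principal components, Euclidean distance versus same-plate DMSO vehicle wells (0.1% v/v), median over six images per well.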
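For surviving fraction (nuclei count normalised to DMSO) in this document: nuclei counted by high-content imaging of Hoechst-stained cells in laminin-coated 384-well plates, relative to 0.1% DMSO vehicle wells, with staurosporine as cell-death control.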

CCCCCCC[N+](CC)(CC)CCCCc1ccc(Cl)cc1 [Clofilium tosylate]
Conditions | phenotypic distance | surviving fraction
E13 [1], 4.1 nM | 0.802 | –
E13 [1], 12.3 nM | 1.25 | –
E13 [1], 37 nM | 0.557 | –
E13 [1], 111.1 nM | 0.985 | –
E13 [1], 333.3 nM | 0.488 | –
E13 [1], 1000 nM | 0.667 | –
E13 [1], 3000 nM | 1.83 | –
E13 [8], 4.1 nM | – | 1.17
E13 [8], 12.3 nM | – | 1.06
E13 [8], 37 nM | – | 0.817
E13 [8], 111.1 nM | – | 0.945
E13 [8], 333.3 nM | – | 0.896
E13 [8], 1000 nM | – | 0.937
E13 [8], 3000 nM | – | 0.609
E21 [7], 4.1 nM | 0.676 | –
E21 [7], 12.3 nM | 1 | –
E21 [7], 37 nM | 1.04 | –
E21 [7], 111.1 nM | 1.16 | –
E21 [7], 333.3 nM | 1.29 | –
E21 [7], 1000 nM | 1.68 | –
E21 [7], 3000 nM | 3.13 | –
E21 [14], 4.1 nM | – | 1
E21 [14], 12.3 nM | – | 1.11
E21 [14], 37 nM | – | 1.1
E21 [14], 111.1 nM | – | 1
E21 [14], 333.3 nM | – | 0.976
E21 [14], 1000 nM | – | 1.12
E21 [14], 3000 nM | – | 0.609
E28 [3], 4.1 nM | 0.664 | –
E28 [3], 12.3 nM | 1.16 | –
E28 [3], 37 nM | 0.464 | –
E28 [3], 111.1 nM | 0.925 | –
E28 [3], 333.3 nM | 0.998 | –
E28 [3], 1000 nM | 1.17 | –
E28 [3], 3000 nM | 1.84 | –
E28 [10], 4.1 nM | – | 0.984
E28 [10], 12.3 nM | – | 1.28
E28 [10], 37 nM | – | 0.96
E28 [10], 111.1 nM | – | 1.18
E28 [10], 333.3 nM | – | 1.16
E28 [10], 1000 nM | – | 1.05
E28 [10], 3000 nM | – | 0.485
E31 [2], 4.1 nM | 0.758 | –
E31 [2], 12.3 nM | 0.742 | –
E31 [2], 37 nM | 0.443 | –
E31 [2], 111.1 nM | 0.89 | –
E31 [2], 333.3 nM | 0.62 | –
E31 [2], 1000 nM | 1.43 | –
E31 [2], 3000 nM | 2.44 | –
E31 [9], 4.1 nM | – | 0.763
E31 [9], 12.3 nM | – | 1.03
E31 [9], 37 nM | – | 1.04
E31 [9], 111.1 nM | – | 0.913
E31 [9], 333.3 nM | – | 1.01
E31 [9], 1000 nM | – | 0.95
E31 [9], 3000 nM | – | 0.452
E34 [5], 4.1 nM | 1 | –
E34 [5], 12.3 nM | 1.05 | –
E34 [5], 37 nM | 0.94 | –
E34 [5], 111.1 nM | 1.17 | –
E34 [5], 333.3 nM | 1.13 | –
E34 [5], 1000 nM | 1.33 | –
E34 [5], 3000 nM | 1.86 | –
E34 [12], 4.1 nM | – | 1.09
E34 [12], 12.3 nM | – | 1.07
E34 [12], 37 nM | – | 0.961
E34 [12], 111.1 nM | – | 0.954
E34 [12], 333.3 nM | – | 0.998
E34 [12], 1000 nM | – | 1.02
E34 [12], 3000 nM | – | 0.813
E57 [6], 4.1 nM | 0.657 | –
E57 [6], 12.3 nM | 0.645 | –
E57 [6], 37 nM | 0.931 | –
E57 [6], 111.1 nM | 0.93 | –
E57 [6], 333.3 nM | 0.68 | –
E57 [6], 1000 nM | 0.764 | –
E57 [6], 3000 nM | 1.73 | –
E57 [13], 4.1 nM | – | 1.1
E57 [13], 12.3 nM | – | 0.992
E57 [13], 37 nM | – | 1.14
E57 [13], 111.1 nM | – | 0.977
E57 [13], 333.3 nM | – | 1.02
E57 [13], 1000 nM | – | 0.959
E57 [13], 3000 nM | – | 0.866
FT3469 [4], 4.1 nM | 0.575 | –
FT3469 [4], 12.3 nM | 1.1 | –
FT3469 [4], 37 nM | 0.53 | –
FT3469 [4], 111.1 nM | 1.01 | –
FT3469 [4], 333.3 nM | 0.917 | –
FT3469 [4], 1000 nM | 1.08 | –
FT3469 [4], 3000 nM | 1.3 | –
FT3469 [11], 4.1 nM | – | 1.12
FT3469 [11], 12.3 nM | – | 1.26
FT3469 [11], 37 nM | – | 0.944
FT3469 [11], 111.1 nM | – | 1.13
FT3469 [11], 333.3 nM | – | 1.13
FT3469 [11], 1000 nM | – | 1.07
FT3469 [11], 3000 nM | – | 0.838

COc1cc2c(c(OC)c1OC)-c1ccc(OC)c(=O)cc1[C@@H](NC(C)=O)CC2 [Colchicine]
Conditions | phenotypic distance | surviving fraction
E13 [1], 4.1 nM | 5.49 | –
E13 [1], 12.3 nM | 5.12 | –
E13 [1], 37 nM | 6.59 | –
E13 [1], 111.1 nM | 7.17 | –
E13 [1], 333.3 nM | 8.24 | –
E13 [1], 1000 nM | 7.42 | –
E13 [1], 3000 nM | 7.88 | –
E13 [8], 4.1 nM | – | 0.247
E13 [8], 12.3 nM | – | 0.187
E13 [8], 37 nM | – | 0.165
E13 [8], 111.1 nM | – | 0.14
E13 [8], 333.3 nM | – | 0.151
E13 [8], 1000 nM | – | 0.152
E13 [8], 3000 nM | – | 0.178
E21 [7], 4.1 nM | 5.8 | –
E21 [7], 12.3 nM | 5.88 | –
E21 [7], 37 nM | 5.7 | –
E21 [7], 111.1 nM | 5.45 | –
E21 [7], 333.3 nM | 5.2 | –
E21 [7], 1000 nM | 5.35 | –
E21 [7], 3000 nM | 4.96 | –
E21 [14], 4.1 nM | – | 0.171
E21 [14], 12.3 nM | – | 0.125
E21 [14], 37 nM | – | 0.133
E21 [14], 111.1 nM | – | 0.137
E21 [14], 333.3 nM | – | 0.136
E21 [14], 1000 nM | – | 0.135
E21 [14], 3000 nM | – | 0.139
E28 [3], 4.1 nM | 2.89 | –
E28 [3], 12.3 nM | 3.81 | –
E28 [3], 37 nM | 4.44 | –
E28 [3], 111.1 nM | 4.55 | –
E28 [3], 333.3 nM | 5.48 | –
E28 [3], 1000 nM | 4.51 | –
E28 [3], 3000 nM | 5.17 | –
E28 [10], 4.1 nM | – | 0.546
E28 [10], 12.3 nM | – | 0.244
E28 [10], 37 nM | – | 0.335
E28 [10], 111.1 nM | – | 0.295
E28 [10], 333.3 nM | – | 0.291
E28 [10], 1000 nM | – | 0.211
E28 [10], 3000 nM | – | 0.207
E31 [2], 4.1 nM | 4.44 | –
E31 [2], 12.3 nM | 6.48 | –
E31 [2], 37 nM | 9.95 | –
E31 [2], 111.1 nM | 12.2 | –
E31 [2], 333.3 nM | 11.7 | –
E31 [2], 1000 nM | 10.4 | –
E31 [2], 3000 nM | 12.5 | –
E31 [9], 4.1 nM | – | 0.131
E31 [9], 12.3 nM | – | 0.0944
E31 [9], 37 nM | – | 0.0551
E31 [9], 111.1 nM | – | 0.0362
E31 [9], 333.3 nM | – | 0.0614
E31 [9], 1000 nM | – | 0.0519
E31 [9], 3000 nM | – | 0.0425
E34 [5], 4.1 nM | 3.32 | –
E34 [5], 12.3 nM | 7.33 | –
E34 [5], 37 nM | 9.15 | –
E34 [5], 111.1 nM | 9.46 | –
E34 [5], 333.3 nM | 7.78 | –
E34 [5], 1000 nM | 7.61 | –
E34 [5], 3000 nM | 10.5 | –
E34 [12], 4.1 nM | – | 0.406
E34 [12], 12.3 nM | – | 0.368
E34 [12], 37 nM | – | 0.389
E34 [12], 111.1 nM | – | 0.284
E34 [12], 333.3 nM | – | 0.318
E34 [12], 1000 nM | – | 0.245
E34 [12], 3000 nM | – | 0.267
E57 [6], 4.1 nM | 4.26 | –
E57 [6], 12.3 nM | 4.49 | –
E57 [6], 37 nM | 4.46 | –
E57 [6], 111.1 nM | 4.55 | –
E57 [6], 333.3 nM | 4.46 | –
E57 [6], 1000 nM | 4.61 | –
E57 [6], 3000 nM | 5.19 | –
E57 [13], 4.1 nM | – | 0.21
E57 [13], 12.3 nM | – | 0.0932
E57 [13], 37 nM | – | 0.105
E57 [13], 111.1 nM | – | 0.119
E57 [13], 333.3 nM | – | 0.0902
E57 [13], 1000 nM | – | 0.0976
E57 [13], 3000 nM | – | 0.0829
FT3469 [4], 4.1 nM | 3.51 | –
FT3469 [4], 12.3 nM | 4.18 | –
FT3469 [4], 37 nM | 5.37 | –
FT3469 [4], 111.1 nM | 5.29 | –
FT3469 [4], 333.3 nM | 4.34 | –
FT3469 [4], 1000 nM | 5.12 | –
FT3469 [4], 3000 nM | 4.51 | –
FT3469 [11], 4.1 nM | – | 0.487
FT3469 [11], 12.3 nM | – | 0.468
FT3469 [11], 37 nM | – | 0.367
FT3469 [11], 111.1 nM | – | 0.301
FT3469 [11], 333.3 nM | – | 0.263
FT3469 [11], 1000 nM | – | 0.335
FT3469 [11], 3000 nM | – | 0.229
